Series [1] is classed as physicochemical. From the text: |Thermal stability data: for crystalline calcium |pseudomate dihydrate, amorphous calcium pseudomonate |Percentage |Initial |Potency |after |Storage ** | ** Expressed as percentage of initial purity.
In series [2] the test system is M.bovigenitalium. Kind of series: In vitro MIC against Mycoplasma, Friis broth agarose. It counts as cell-based. The note with it: 144 h; strain ATCC 14173; 6 days at 37° C. On the procedure:
(§1) The activity of the compounds of the Examples against various mycoplasmal organisms was assayed in vitro in Friis broth solidified with 0.9% agarose and inoculated with 10^3 to 10^5 C.F.U. The minimum inhibitory concentrations (MIC's) were determined after incubation for 6 days at 37° C. and are shown in Table 1.

For series [3], the system named is M.bovis. The description is as above. It counts as cell-based. The note with it: NCTC10131, 144 h. The method, then:
as §1

Series [4] relates to M.gallisepticum. The description is as above. It counts as cell-based. The note with it: Mycoplasmoides gallisepticum, 144 h; strain S6; 6 days at 37° C. The method, then: as §1
The test system of series [5] is M.hyopneumoniae. Described as above. It counts as cell-based. The method, then:
as §1

Series [6] concerns M.hyorhinis. The description is as above. The note with it: Mesomycoplasma hyorhinis, 6 days at 37° C. It counts as cell-based. On the procedure: as §1
Series [7] has as its system M.hyosynoviae. Described as above. It counts as cell-based. As to conditions: 144 h; strain ATCC 25591; 6 days at 37° C. The method, then: as §1
Series [8] has as its system M.pneumoniae. The description is as above. It is filed as cell-based. As to conditions: Mycoplasmoides pneumoniae, ATCC15492, 144 h; strain ATCC 15492; 6 days at 37° C. On the procedure:
as §1

Like-named read-outs stand apart in the source and are kept apart here.

As usually defined, the MIC is the least concentration at which growth counts as inhibited. As for `CC(=CC(=O)OCCCCCCCCC(=O)O)CC1OCC(CC2OC2C(C)C(C)O)C(O)C1O` (stereo not drawn) [Calcium Pseudomonate dihydrate, Calcium Pseudomonate Dihydrate], the results for the “Percentage Initial Potency after Storage” value in series [1] (192 h) and in series [1] (240 h) were 97% and 98.9%, respectively. The MIC in series [2] is 0.1 µg/mL; in series [3], 0.025 µg/mL; in series [4], more than 10 µg/mL; in series [5] (Mesomycoplasma hyopneumoniae, 144 h, mean of M.hyopneumoniae strains, read-out: MIC, MEAN), 2.5 µg/mL; in series [5] (Mesomycoplasma hyopneumoniae, 144 h, strain JF 435, 6 days at 37° C., read-out: MIC), 2.5 µg/mL; in series [5] (Mesomycoplasma hyopneumoniae, NCTC10110, 144 h, strain NCTC 10110, 6 days at 37° C., read-out: MIC), 2.5 µg/mL. The MIC in series [5] (strain ATTCC 25095, 6 days at 37° C.) is 2.5 µg/mL; in series [5] (strain HK (2), 6 days at 37° C.) it was 2.5 µg/mL; in series [5] (strain J2206/183b, 6 days at 37° C.) it was 2.5 µg/mL; in series [5] (strain LABER, 6 days at 37° C.) it was 2.5 µg/mL; in series [5] (strain MS16, 6 days at 37° C.), 2.5 µg/mL; in series [5] (strain PW/C/210, 6 days at 37° C.), 2.5 µg/mL. Further, the MIC in series [5] (strain Str 11, 6 days at 37° C.) turned out to be 2.5 µg/mL; in series [5] (strain TAM 6N, 6 days at 37° C.), 2.5 µg/mL; in series [5] (strain UCD1, 6 days at 37° C.), 2.5 µg/mL; in series [6] (ATCC23234, 144 h, strain ATCC 23234), 1 µg/mL; in series [6] (ATCC25021, 144 h, strain ATCC 25021), 1 µg/mL; in series [7], 0.5 µg/mL. Moreover, the MIC in series [8] amounted to 5 µg/mL.

For the origin of these results see patent US5191093A, “Process for preparing crystalline calcium pseudomonate” (Beecham Group p.l.c., priority 1990, dated 1993).
